Patent US12187684B2, “Benzimidazole derivatives as modulators of retinoid-related orphan receptor gamma (RORγ) and pharmaceutical use thereof” (Jiangsu Hengrui Medicine Co., Ltd., priority 2018, dated 2025)

Assays:
[1] = biological target: T1, RORγ LBD-GST tagged (Homo sapiens, UniProt P51449); experiment: LanthaScreen TR-FRET RORγ coactivator assay; type: biochemical; settings: Fluorescein-D22 coactivator peptide, 1 hour room temperature
T1 construct: RORγ LBD-GST tagged (Cat No. RORC-114H, Creative Biomart); purchased Creative Biomart RORC-114H
T1 sequence (P51449 269-508 limits assumed): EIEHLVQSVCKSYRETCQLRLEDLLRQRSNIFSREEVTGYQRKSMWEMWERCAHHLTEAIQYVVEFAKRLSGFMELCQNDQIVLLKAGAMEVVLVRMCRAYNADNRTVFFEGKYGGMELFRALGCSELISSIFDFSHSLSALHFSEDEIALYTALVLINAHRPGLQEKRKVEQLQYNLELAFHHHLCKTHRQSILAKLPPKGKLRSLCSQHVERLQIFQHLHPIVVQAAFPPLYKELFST
Summary of the method: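 GST-tagged RORγ LBD (25 ng/reaction) was incubated in coregulator buffer D with 5 mM DTT and compound (top 3 μM, 7-fold steps, 7 doses), then with a mix containing 0.6 μM fluorescein-D22 peptide and 8 nM Tb anti-GST antibody. After 1 h at room temperature in the dark, 520/495 nm TR-FRET was read. IC50 came from log concentration versus percent inhibition.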

[2] = test system: IL-17 production, human PBMC cells; experiment: IL-17 production assay using human PBMC; type: cell-based; settings: human PBMC stimulated by cytostim for 3 days, IL-17 ELISA of supernatant
Source text: Test Example 2. IL-17 Production Assay Using Human PBMC
• 1. Human PBMC cells (Cat No. 70025.1, Zenbio) • 2. Lymphocyte medium (Cat No. LYMPH-1, Zenbio) • 3. TexMACS (Cat No. 130-097-196, Miltenyi) • 4. Cytostim-human (Cat No. 1130-092-173, Miltenyi) • 5. Human IL-17 ELISA (Cat No. D1700, R&D systems) • 6. Tecan Infinite M1000 plate reader (Tecan)
Experimental Procedure for IL-17 Production Assay
Cryopreserved peripheral blood human mononuclear cells (PBMCs) were rapidly thawed in warmed Lymphocyte media, and centrifuged cell suspension at 1000 rpm for 10 minutes. The supernatant was removed, and the cell pellets were gently resuspended in TexMACS media.
Human PBMC cells in TexMACS media were plated at 1×10^5 each well in triplicate. The test compounds at various concentrations or vehicle control (<0.5% DMSO) were added into cell culture. The cells were stimulated by cytostim (10 μL/mL) for 3 days in a humidified, 5% CO2 incubator at 37° C.
After incubation, the cell culture supernatant was harvested, and then removed particulates by centrifugation. Human IL-17 in the supernatant was measured using human IL-17 ELISA kit according to the manufacturer's protocol. IC50 values were determined using GraphPad Prism by plotting the compounds concentration versus percent inhibition.

CC(=O)NCCC(c1ccc(S(=O)(=O)CC2CC2)cc1)c1nc2cc(-c3ccccc3OC(F)F)c(Cl)cc2[nH]1 (single isomer, unassigned) [166 or 167 made from Int-164A, (R or S)—N-(3-(6-chloro-5-(2-(difluoromethoxy)phenyl)-1H-benzo[d]imidazol-2-yl)-3-(4-((cyclopropylmethyl)sulfonyl)phenyl)propyl)acetamide]
IC50 [1]: 0.01 µM | IC50 ([2]; Homo sapiens, PBMC, 72 h): 0.066 µM

CC(=O)NCCC(c1ccc(S(=O)(=O)CC2CC2)cc1)c1nc2cc(-c3ccccc3OC(F)F)c(Cl)cc2[nH]1 (single isomer, unassigned) [166 or 167 made from Int-164B, (R or S)—N-(3-(6-chloro-5-(2-(difluoromethoxy)phenyl)-1H-benzo[d]imidazol-2-yl)-3-(4-((cyclopropylmethyl)sulfonyl)phenyl)propyl)acetamide]
IC50 [1]: 0.047 µM | IC50 [2]: 0.072 µM

CCS(=O)(=O)c1ccc(C(CCO)c2nc3c(Cl)c(N4CCC(F)(F)CC4)c(Cl)cc3[nH]2)cc1 (single isomer, unassigned) [the longer retention time of 139 and 140, 3-(4,6-dichloro-5-(4,4-difluoropiperidin-1-yl)-1H-benzo[d]imidazol-2-yl)-3-(4-(ethylsulfonyl)phenyl)propan-1-ol]
IC50 [1]: 0.035 µM | IC50 [2]: 0.026 µM

CCS(=O)(=O)c1ccc(C(CC(N)=O)c2nc3c(Cl)c(N4CCC(F)(F)CC4)c(Cl)cc3[nH]2)cc1 (single isomer, unassigned) [the longer retention time of 146 and 147, 3-(4,6-dichloro-5-(4,4-difluoropiperidin-1-yl)-1H-benzo[d]imidazol-2-yl)-3-(4-(ethylsulfonyl)phenyl)propanamide]
IC50 [1]: 0.004 µM | IC50 [2]: 0.014 µM

CC(C)Oc1ccccc1-c1cc2nc(C(CC(N)=O)c3ccc(S(=O)(=O)CC4CC4)cc3)[nH]c2cc1Cl (single isomer, unassigned) [the longer retention time of 148 and 149, 3-(6-chloro-5-(2-isopropoxyphenyl)-1H-benzo[d]imidazol-2-yl)-3-(4-((cyclopropylmethyl)sulfonyl)phenyl)propanamide]
IC50 [1]: 0.083 µM | IC50 [2]: 0.022 µM

CC(C)Oc1ccccc1-c1cc2nc(C(CCO)c3ccc(S(=O)(=O)CC4CC4)cc3)[nH]c2cc1Cl (single isomer, unassigned) [the longer retention time of 150 and 151, 3-(6-chloro-5-(2-isopropoxyphenyl)-1H-benzo[d]imidazol-2-yl)-3-(4-((cyclopropylmethyl)sulfonyl)phenyl)propan-1-ol]
IC50 [1]: 0.026 µM | IC50 [2]: 0.031 µM

NC(=O)CC(c1ccc(S(=O)(=O)CC2CC2)cc1)c1nc2cc(-c3ccccc3OC(F)F)c(Cl)cc2[nH]1 (single isomer, unassigned) [the longer retention time of 152 and 153, 3-(6-chloro-5-(2-(difluoromethoxy)phenyl)-1H-benzo[d]imidazol-2-yl)-3-(4-((cyclopropylmethyl)sulfonyl)phenyl)propanamide]
IC50 [1]: 0.013 µM | IC50 [2]: 0.01 µM

O=S(=O)(CC1CC1)c1ccc(C(CCO)c2nc3cc(-c4ccccc4OC(F)F)c(Cl)cc3[nH]2)cc1 (single isomer, unassigned) [the longer retention time of 155 and 156, 3-(6-chloro-5-(2-(difluoromethoxy)phenyl)-1H-benzo[d]imidazol-2-yl)-3-(4-((cyclopropylmethyl)sulfonyl)phenyl)propan-1-ol]
IC50 [1]: 0.074 µM | IC50 [2]: 0.026 µM

O=S(=O)(CC1CC1)c1ccc(C(CCO)c2nc3cc(Cl)c(N4CCC(F)(F)CC4)c(Cl)c3[nH]2)cc1 (single isomer, unassigned) [the longer retention time of 160 and 161, 3-(4-((cyclopropylmethyl)sulfonyl)phenyl)-3-(5,7-dichloro-6-(4,4-difluoropiperidin-1-yl)-1H-benzo[d]imidazol-2-yl)propan-1-ol]
IC50 [1]: 0.003 µM | IC50 [2]: 0.004 µM

NC(=O)CC(c1ccc(S(=O)(=O)CC2CC2)cc1)c1nc2cc(Cl)c(N3CCC(F)(F)CC3)c(Cl)c2[nH]1 (single isomer, unassigned) [the longer retention time of 162 and 163, 3-(4-((cyclopropylmethyl)sulfonyl)phenyl)-3-(5,7-dichloro-6-(4,4-difluoropiperidin-1-yl)-1H-benzo[d]imidazol-2-yl)propanamide]
IC50 [1]: 0.31 µM | IC50 [2]: 0.029 µM

CCS(=O)(=O)c1ccc(Cc2nc3c(Cl)c(-c4ccccc4C(F)(F)F)c(Cl)cc3[nH]2)cc1 [Example 3, 4,6-dichloro-2-(4-(ethylsulfonyl)benzyl)-5-(2-(trifluoromethyl)phenyl)-1H-benzo[d]imidazole]
IC50 [1]: 0.373 µM | IC50 ([2]; Homo sapiens, PBMC, 72 h): 0.052 µM

CCS(=O)(=O)c1ccc(C(CO)c2nc3c(Cl)c(-c4ccccc4OC(F)(F)F)c(Cl)cc3[nH]2)cc1 (centres unmarked) [Example 4, 2-(4,6-dichloro-5-(2-(trifluoromethoxy)phenyl)-1H-benzo[d]imidazol-2-yl)-2-(4-(ethylsulfonyl)phenyl)ethanol]
IC50 [1]: 0.16 µM | IC50 ([2]; Homo sapiens, PBMC, 72 h): 0.053 µM

CCS(=O)(=O)c1ccc(C(O)c2nc3c(Cl)c(-c4ccccc4OC(F)(F)F)c(Cl)cc3[nH]2)cc1 (centres unmarked) [Example 5, (4,6-dichloro-5-(2-(trifluoromethoxy)phenyl)-1H-benzo[d]imidazol-2-yl)(4-(ethylsulfonyl)phenyl)methanol]
IC50 [1]: 0.626 µM | IC50 ([2]; Homo sapiens, PBMC, 72 h): 0.025 µM

CCS(=O)(=O)c1ccc(C(CO)c2nc3c(Cl)c(-c4ccccc4OC)c(Cl)cc3[nH]2)cc1 (centres unmarked) [Example 6, 2-(4,6-dichloro-5-(2-methoxyphenyl)-1H-benzo[d]imidazol-2-yl)-2-(4-(ethylsulfonyl)phenyl)ethanol]
IC50 [1]: 0.003 µM | IC50 ([2]; Homo sapiens, PBMC, 72 h): 0.022 µM

CCS(=O)(=O)c1ccc(C(O)c2nc3c(Cl)c(-c4ccccc4OC)c(Cl)cc3[nH]2)cc1 (centres unmarked) [Example 7, (4,6-dichloro-5-(2-methoxyphenyl)-1H-benzo[d]imidazol-2-yl)(4-(ethylsulfonyl)phenyl)methanol]
IC50 [1]: 0.086 µM | IC50 ([2]; Homo sapiens, PBMC, 72 h): 0.223 µM

CCS(=O)(=O)c1ccc(C(CO)c2nc3c(Cl)c(-c4ccccc4OC(C)C)c(Cl)cc3[nH]2)cc1 (centres unmarked) [Example 9, 2-(4,6-dichloro-5-(2-isopropoxyphenyl)-1H-benzo[d]imidazol-2-yl)-2-(4-(ethylsulfonyl)phenyl)ethanol]
IC50 [1]: 0.475 µM | IC50 ([2]; Homo sapiens, PBMC, 72 h): 0.01 µM

CCS(=O)(=O)c1ccc(Cc2nc3c(Cl)c(-c4ccccc4OCOC)c(Cl)cc3[nH]2)cc1 [Example 13, 4,6-dichloro-2-(4-(ethylsulfonyl)benzyl)-5-(2-(methoxymethoxy)phenyl)-1H-benzo[d]imidazole]
IC50 [1]: 0.675 µM | IC50 ([2]; Homo sapiens, PBMC, 72 h): 0.082 µM

CCS(=O)(=O)c1ccc(C(CO)c2nc3c(Cl)c(-c4ccccc4OCOC)c(Cl)cc3[nH]2)cc1 (centres unmarked) [Example 14, 2-(4,6-dichloro-5-(2-methoxymethoxyphenyl)-1H-benzo[d]imidazol-2-yl)-2-(4-(ethylsulfonyl)phenyl)ethanol]
IC50 [1]: 0.086 µM | IC50 ([2]; Homo sapiens, PBMC, 72 h): 0.022 µM

CCS(=O)(=O)c1ccc(Cc2nc3c(Cl)c(-c4ccccc4OCCOC)c(Cl)cc3[nH]2)cc1 [Example 19, 4,6-dichloro-2-(4-(ethylsulfonyl)benzyl)-5-(2-(2-methoxyethoxy)phenyl)-1H-benzo[d]imidazole]
IC50 [1]: 0.052 µM | IC50 ([2]; Homo sapiens, PBMC, 72 h): 0.343 µM

CCS(=O)(=O)c1ccc(C(CO)c2nc3c(Cl)c(-c4ccccc4OCCOC)c(Cl)cc3[nH]2)cc1 (centres unmarked) [Example 20, 2-(4,6-dichloro-5-(2-(2-methoxyethoxy)phenyl)-1H-benzo[d]imidazol-2-yl)-2-(4-(ethylsulfonyl)phenyl)ethanol]
IC50 [1]: 0.013 µM | IC50 ([2]; Homo sapiens, PBMC, 72 h): 0.056 µM

CCS(=O)(=O)c1ccc(C(O)c2nc3c(Cl)c(-c4ccccc4OCCOC)c(Cl)cc3[nH]2)cc1 (centres unmarked) [Example 21, (4,6-dichloro-5-(2-(2-methoxyethoxy)phenyl)-1H-benzo[d]imidazol-2-yl)(4-(ethylsulfonyl)phenyl)methanol]
IC50 [1]: 0.083 µM | IC50 ([2]; Homo sapiens, PBMC, 72 h): 0.453 µM

CCS(=O)(=O)c1ccc(C(O)c2nc3c(Cl)c(-c4ccccc4C#N)c(Cl)cc3[nH]2)cc1 (centres unmarked) [Example 23, 2-(4,6-dichloro-2-((4-(ethylsulfonyl)phenyl)(hydroxy)methyl)-1H-benzo[d]imidazol-5-yl)benzonitrile]
IC50 [1]: 0.318 µM | IC50 ([2]; Homo sapiens, PBMC, 72 h): 0.075 µM
